Reference: article PMC8268581, “Identification of 3,4-Dihydro-2H,6H-pyrimido[1,2-c][1,3]benzothiazin-6-imine Derivatives as Novel Selective Inhibitors of Plasmodium falciparum Dihydroorotate Dehydrogenase” (International Journal of Molecular Sciences, 2021)
Read-outs that look alike come from different tables or passages of the source.

Assays:
[1] = molecular target: T1, PfDHODH (Plasmodium falciparum, UniProt Q08210); experiment: PfDHODH inhibition assay (DCIP end-point, 384-well); type: biochemical
T1 construct: encoding amino acid residues 158 to 569 fused to a His6-SUMO tag in its N-terminus; His6-SUMO (N, cleaved yes); made in house; host or cells: E. coli BL21 Star (DE3), pETSUMO/PfDHODH
Protocol: The screening of 40,400 compounds was conducted in 384-well plates by adapting the end-point assay reported before. First, 1 µL of 200 µM compound was transferred into 384-well plates using a Benchtop Multi-Pipetter EDR-384SR (Biotech Co., Ltd., Tokyo, Japan). […] Next, 38 µL of assay mix (100 mM HEPES-NaOH pH 7.5, 5% (v/v) glycerol, 150 mM NaCl, 0.05% (v/v) Triton X-100, 15 µM decylubiquinone (dUQ, Sigma), 120 µM 2,6-dichlorophenolindophenol (DCIP, Sigma), and 20 nM PfDHODH) were dispensed into all wells and mixed at 600 rpm for 1 min by a MixMate®® (Eppendorf). The reaction was started by the addition of 5 µL of 1.8 mM L-DHO (Sigma) as the substrate and mixed as described above for 20 s. The absorbance at 600 nm was recorded using a SpectraMax®® Paradigm®® Multi-Mode Microplate Reader (Molecular Devices) before (t0) and after 20 min (t20) incubation at room temperature. The readings at t0 were subtracted from t20, and PfDHODH inhibition was calculated as the inhibition relative to the negative and positive controls in a single-point assay. Hits were defined as compounds inhibiting more than 50% of PfDHODH activity at 4.5 µM. The quality of the screening system was evaluated by calculating statistical parameters: Z′-factor, S/N, S/B, SW, and CV, as previously reported. The IC50 values of the hit compounds were determined using the same assay system containing serial dilutions of each compound in triplicates (22.7, 6.8, 2.27, 0.68, 0.227, 0.068, 0.023, 0.007, 0.002, 0.0007 µM) using GraphPad Prism 8.0 software (GraphPad Software Inc., San Diego, CA, USA).

[2] = molecular target: mammalian mitochondrial complexes I–III (Bos taurus, UniProt P00157+P03887+P17694+P42026); experiment: NADH-cytochrome c reductase (complexes I–III) activity assay; type: biochemical; details: bovine heart mitochondria, range tested 0.0007 to 22.7 µM; read-out: IC50 Mammalian Mitochondrial CI–III
Protocol: Bovine heart mitochondria were prepared as previously described. The NADH-cytochrome c reductase (complexes I–III) and succinate-cytochrome c reductase (complexes II–III) activities were assayed in 384-well plates following an established protocol with small modifications. Complex I–III activity was assayed in a reaction mix containing 50 mM phosphate buffer pH 7.4, 2 mM KCN, 200 µM cytochrome c (cytochrome c from horse heart, Nacalai tesque), and 15 µg/mL mitochondria. Plates containing 1 µL serial dilutions of PfDHODH inhibitors were prepared and mixed with 38 µL of the reaction mix, as described above. The reaction was started by the addition of 5 µL of 2.6 mM NADH, and the assay was performed as described for PfDHODH, but at 550 nm and with 15 min of incubation. Complex II–III activity was assayed similarly to complex I–III activity but with 100 µM cytochrome c and 25 µg/mL mitochondria, and the reaction was started by 10 mM succinate. For both assays, DMSO and 5 µM ascochlorin were used as negative and positive controls, respectively. Assays were performed in triplicate.

[3] = system: P. falciparum 3D7; experiment: In vitro antimalarial assay (PfLDH/diaphorase); type: cell-based; details: Plasmodium falciparum, growth inhibition, 72 h, 0.0003 to 10 µM, read-out: EC50 Pf3D7
Protocol: This assay was conducted using human red blood cells (RBC) following the guidelines of the ethics committee of Nagasaki University (permission no. 19). Human RBC was obtained from the Japanese Red Cross Society. The P. falciparum 3D7 strain was cultured in 2% hematocrit type O human RBC in RPMI-1640 medium (Gibco) supplemented with 23.8 mM sodium bicarbonate (Wako), 50 mg/L hypoxanthine (Wako), 25 mg/L gentamycin (Sigma), and 0.5% (w/v) AlbuMAX®® II (Gibco) under a 5% O2, 5% CO2, and 90% N2 atmosphere at 37 °C. Parasites were synchronized with 5% (w/v) D-sorbitol (Wako).
Synchronized ring-stage parasites at 0.3% parasitemia and 2% hematocrit were cultured in a 384-well plate at 25 µL with test compounds at a final concentration in the range of 0.0003 to 10 µM with a fixed DMSO concentration of 0.4% (v/v). Parasite growth was monitored by the diaphorase-coupled P. falciparum lactate dehydrogenase (PfLDH) assay, as previously described. After 72 h, 70 µL of the assay solution (150 mM lithium L-lactate (Wako), 0.05 mg/mL 3-acetylpyridine adenine dinucleotide (Oriental Yeast Co., Ltd., Tokyo, Japan), 0.2 mg/mL nitro blue tetrazolium (Wako), 1 unit/mL diaphorase, and 100 mM Tris-HCl pH 8.0) were mixed with the parasite culture and incubated at room temperature for 40 min, and the generated nitro blue formazan was measured at 650 nm using a SpectraMax®® Paradigm®® Multi-Mode Microplate Reader. […] The EC50 was calculated using GraphPad Prism 8.0 software from the mean of quadruplets values.

[4] = recombinant tag-free PfDHODH, 20 min, serial dilutions 0.0007-22.7 µM, read-out: IC50 DHODH Pf

T1 sequence (Q08210 158-569): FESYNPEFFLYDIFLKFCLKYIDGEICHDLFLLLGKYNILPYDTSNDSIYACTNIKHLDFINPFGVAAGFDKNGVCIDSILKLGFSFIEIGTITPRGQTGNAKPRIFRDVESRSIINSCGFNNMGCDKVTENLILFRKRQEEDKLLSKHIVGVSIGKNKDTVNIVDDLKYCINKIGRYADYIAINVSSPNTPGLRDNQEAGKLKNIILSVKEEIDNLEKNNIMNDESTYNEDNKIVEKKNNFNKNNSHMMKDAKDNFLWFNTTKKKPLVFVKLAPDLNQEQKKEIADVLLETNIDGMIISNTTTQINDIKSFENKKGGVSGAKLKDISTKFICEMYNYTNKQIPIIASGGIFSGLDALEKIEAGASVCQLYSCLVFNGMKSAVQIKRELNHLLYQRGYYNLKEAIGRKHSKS

Row | Structure (SMILES) | IC50 [1, 4] [nM] | IC50 [2] [nM] | EC50 [3] [nM] | IC50 [1] [nM] | fold increase in the PfDHODH IC50 compared to 1 [1] [fold]
1 | CCc1cccc(-c2ccc3c(c2)SC(=N)N2CCCN=C32)c1 [Compound 25] | 1520 ± 80 | > 22700 | 1770 ± 830 | – | –
2 | N=C1Sc2cc(-c3ccc(OC(F)(F)F)cc3)ccc2C2=NCCCN12 [Compound 18] | 1430 ± 60 | > 22700 | 370 ± 130 | – | –
3 | N=C1Sc2cc(/C=C/c3ccccc3)ccc2C2=NCCCN12 [Compound 8] | – | > 22700 | 630 ± 250 | 1070 ± 50 | –
4 | N=C1Sc2cc(-c3ccccc3)ccc2C2=NCCCN12 [Compound 12] | 680 ± 50 | > 22700 | 1150 ± 70 | – | –
5 | COc1ccccc1-c1ccc2c(c1)SN1CCCN=C21 [Compound 42] | 1180 ± 50 | > 22700 | 540 ± 220 | – | –
6 | N#Cc1ccc(-c2ccc3c(c2)SC(=N)N2CCCN=C32)cc1 [Compound 14] | 3890 ± 230 | > 22700 | 1210 ± 40 | – | –
7 | N=C1Sc2cc(-c3ccc4c(C(=O)OC(F)(F)F)c[nH]c4c3)ccc2C2=NCCCN12 [Compound 6] | 700 ± 40 | > 22700 | 370 ± 50 | – | –
8 | C#CCOCc1ccc(C(=O)c2ccc(-c3ccc4c(c3)SC(=N)N3CCCN=C43)cc2)cc1 [Compound 20] | 1210 ± 60 | > 22700 | 380 ± 80 | – | –
9 | CC(C)Oc1cccc(-c2ccc3c(c2)SC(=N)N2CCCN=C32)c1 [Compound 22] | 1560 ± 50 | > 22700 | 900 ± 440 | – | –
10 | N=C1Sc2cc(-c3ccc4ccccc4c3)ccc2C2=NCCCN12 [Compound 1] | 650 ± 50 | > 22700 | 430 ± 180 | – | –
11 | N=C1Sc2cc(-c3ccc4c(c3)OCO4)ccc2C2=NCCCN12 [Compound 3] | 1180 ± 40 | > 22700 | 1160 ± 20 | – | –
12 | c1ccc2c(-c3ccc4c(c3)SN3CCCN=C43)cccc2c1 [Compound 31] | 1100 ± 80 | > 22700 | 330 ± 10 | – | –
13 | N=C1Sc2cc(-c3ccccc3-c3ccccc3)ccc2C2=NCCCN12 [Compound 27] | 3300 ± 100 | > 22700 | 390 ± 50 | – | –
14 | N=C1Sc2cc(-c3ccc(C(=O)c4ccccc4)cc3)ccc2C2=NCCCN12 [Compound 19] | 1070 ± 50 | > 22700 | 510 ± 140 | – | –
15 | N=C1Sc2cc(-c3ccc4c(c3)OCCO4)ccc2C2=NCCCN12 [Compound 4] | 970 ± 80 | > 22700 | 1070 ± 50 | – | –
16 | CC(C)(C)N=C1Sc2cc(-c3cc4ccccc4s3)ccc2C2=NCCCN12 [Compound 10] | 3840 ± 90 | > 22700 | 2770 ± 280 | – | 6
17 | N=C1Sc2cc(-c3ccc(C(F)(F)F)cc3)ccc2C2=NCCCN12 [Compound 15] | 2310 ± 110 | > 22700 | 1000 ± 50 | – | –
18 | COC(=O)c1cccc(-c2ccc3c(c2)SN2CCCN=C32)c1 [Compound 40] | 1430 ± 20 | > 22700 | 1720 ± 480 | – | –
19 | COC(=O)c1ccc(-c2ccc3c(c2)SN2CCCN=C32)cc1 [Compound 37] | 1150 ± 70 | > 22700 | 2780 ± 270 | – | –
20 | N=C1Sc2cc(-c3ccc4cnccc4c3)ccc2C2=NCCCN12 [Compound 5] | 960 ± 90 | > 22700 | 1130 ± 50 | – | –
21 | N=C1Sc2cc(-c3cccc([N+](=O)[O-])c3)ccc2C2=NCCCN12 [Compound 21] | 3680 ± 310 | > 22700 | 850 ± 120 | – | –
22 | CSc1ccc(-c2ccc3c(c2)SC(=N)N2CCCN=C32)cc1 [Compound 17] | 960 ± 70 | > 22700 | 1620 ± 560 | – | –
23 | O=[N+]([O-])c1ccccc1-c1ccc2c(c1)SN1CCCN=C21 [Compound 43] | 1150 ± 60 | > 22700 | 1110 ± 80 | – | –
24 | N=C1Sc2cc(-c3cc4ccccc4o3)ccc2C2=NCCCN12 [Compound 7] | 1300 ± 50 | > 22700 | 340 ± 10 | – | –
25 | c1cc2c(cc1-c1ccc3c(c1)SN1CCCN=C31)OCO2 [Compound 32] | 1290 ± 90 | > 22700 | 1850 ± 530 | – | –
26 | c1ccc(-c2ccc3c(c2)C2=NCCCN2S3)cc1 [Compound 36] | 1510 ± 40 | > 22700 | 4160 ± 90 | – | –
27 | c1ccc(-c2ccc3c(c2)SN2CCCN=C32)cc1 [Compound 30] | 4260 ± 120 | > 22700 | 9670 ± 5090 | – | –
28 | COC(=O)c1ccc(-c2ccc3c(c2)SC(=N)N2CCCN=C32)cc1 [Compound 13] | 1220 ± 50 | > 22700 | 1060 ± 10 | – | –
29 | O=[N+]([O-])c1ccc(-c2ccc3c(c2)SN2CCCN=C32)cc1 [Compound 39] | 1300 ± 40 | > 22700 | 1140 ± 60 | – | –
